Experimental data reported in patent US10722518B2, “Oxazine derivative for use in the treatment or prevention of cerebral amyloid angiopathy” (Novartis AG, priority 2016, dated 2020).

Test system: Aβ40 in CSF
Experiment: First-in-human single and multiple ascending oral dose study: Aβ40 in CSF
Type: in vivo
Conditions: for Dose-dependent lowering of Aβ40 concentrations in CSF, up to: healthy elderly subjects
Experimental: The purpose of this study was to determine the single and multiple maximum tolerated dose of Compound 1 and to assess the pharmacokinetic/pharmacodynamic (PK/PD) relationship using Aβ in CSF as primary PD biomarker.
Pharmacodynamic assessments using Aβ concentrations in CSF as primary biomarker of drug action were also been applied in healthy elderly subjects. Dose-dependent lowering of Aβ40 concentrations was determined up to approximately 80% and 90% after single and multiple dosing, respectively (Tables 9 and 10, FIG. 7).
In the completed first-in-human and 3-month dose-ranging safety and tolerability clinical studies described in Examples 3 and 4, Aβ concentrations in CSF were obtained by means of lumbar punctures before the first dose (baseline) and respectively after 2 weeks and 3 months of multiple dosing. ApoE4 genotype also was obtained in the subjects who consented. The percent change from baseline in Aβ40 and Aβ42 concentrations was calculated in subjects who took the study treatment and had no major protocol deviation with potential impact on the evaluation of the pharmacodynamic effect. Tables 13 to 16 below provide summary statistics of the percent change from baseline by treatment group and ApoE genotype (E4 heterozygotes versus E4 non-carriers). Only one subject with CSF data was E4 homozygote (from the 3-month dose-ranging safety and tolerability study).

Structure (SMILES): C[C@@]1(c2nc(NC(=O)c3ncc(C(F)(F)F)cc3Cl)ccc2F)CO[C@@](C)(C(F)(F)F)C(N)=N1 [Compound 1, N-(6-((3R,6R)-5-amino-3,6-dimethyl-6-(trifluoromethyl)-3,6-dihydro-2H-1,4-oxazin-3-yl)-5-fluoropyridin-2-yl)-3-chloro-5-(trifluoromethyl)picolinamide]
- Dose-dependent lowering of Aβ40 concentrations in CSF, up to (multiple dosing): ~90%
- Aβ40 in CSF percent change from baseline, Median (single dose 10 mg, 24 h): −14.3%
- Dose-dependent lowering of Aβ40 concentrations in CSF, up to (single dosing): approximately 80%
